In patent US6114334A, “Piperazine derivatives as therapeutic agents” (Knoll Aktiengesellschaft, priority 1995, dated 2000):
Counter-ions that a name gives are not always drawn. Like-named read-outs stand apart in the source and are kept apart here.

Tests used:
5-HT1A receptors = molecular target: T1, 5-HT1A receptors (Rattus norvegicus, UniProt P19327); test: inhibition of [3H]8-OH-DPAT binding to 5-HT1A receptors in vitro; parameters: species or system rat (male Sprague-Dawley, hippocampal tissue); details: for Ki: [3H]8-OH-DPAT 2 nM, 25° C., 30 min; for inhibition at 1 µM: read-out: % displacement at 10^-6 M, 5-HT1A
T1 sequence (P19327 1-422): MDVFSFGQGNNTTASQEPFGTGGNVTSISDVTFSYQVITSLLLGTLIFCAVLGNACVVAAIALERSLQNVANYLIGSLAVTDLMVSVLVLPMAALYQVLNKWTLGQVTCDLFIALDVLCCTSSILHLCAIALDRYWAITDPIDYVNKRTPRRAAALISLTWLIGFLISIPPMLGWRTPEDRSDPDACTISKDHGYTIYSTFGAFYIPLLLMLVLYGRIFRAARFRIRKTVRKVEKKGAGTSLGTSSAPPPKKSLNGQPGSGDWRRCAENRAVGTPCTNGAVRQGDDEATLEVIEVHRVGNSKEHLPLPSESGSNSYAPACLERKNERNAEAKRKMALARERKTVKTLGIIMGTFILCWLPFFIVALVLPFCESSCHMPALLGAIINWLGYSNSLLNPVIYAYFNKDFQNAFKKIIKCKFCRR

α2D-adrenoceptors = molecular target: T2, α2D-adrenoceptors (Rattus norvegicus, UniProt P22909); test: inhibition of tritiated idazoxan binding to α2D-adrenoceptors in vitro; parameters: species or system rat (male Charles River CD, frontal cortical tissue); details: rat frontal cortex; for Ki: [3H]idazoxan 1 nM, 0° C., 75 min; for inhibition at 1 µM: 10^-6 M, [3H]idazoxan, read-out: % displacement at 10^-6 M, α2D
T2 sequence (P22909 1-465): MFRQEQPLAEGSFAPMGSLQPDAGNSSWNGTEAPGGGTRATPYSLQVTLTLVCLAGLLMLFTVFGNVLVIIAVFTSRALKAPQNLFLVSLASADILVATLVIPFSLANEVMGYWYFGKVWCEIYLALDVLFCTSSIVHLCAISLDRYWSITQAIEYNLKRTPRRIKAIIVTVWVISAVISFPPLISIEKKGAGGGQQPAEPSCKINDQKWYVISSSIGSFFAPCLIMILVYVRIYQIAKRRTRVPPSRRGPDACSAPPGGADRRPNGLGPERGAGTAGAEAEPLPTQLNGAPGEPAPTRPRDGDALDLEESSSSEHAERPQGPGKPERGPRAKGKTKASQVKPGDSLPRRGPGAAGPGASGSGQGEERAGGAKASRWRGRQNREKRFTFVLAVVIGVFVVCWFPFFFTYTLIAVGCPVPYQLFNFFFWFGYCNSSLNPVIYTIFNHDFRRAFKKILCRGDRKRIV

α1-adrenoceptors = test: inhibition of 7-methoxy-[3H]prazosin binding to α1-adrenoceptors in vitro; parameters: species or system rat (male Charles River CD, whole cortical tissue); details: rat whole cortex, 30 min; for Ki: 7-methoxy-[3H]prazosin 0.1 nM, 30° C.; for % displacement at 10^-6 M, α1: 7-methoxy-[3H]prazosin, 1 µM
Method: Whole cortical tissue from the brains of male Charles River CD rats weighing between 150-250 g were homogenised in ice-cold 50 mM Tris-HCl, pH 7.6 (at 25° C.; 1:40 w/v) and centrifuged at 1000 g at 4° C. for 10 minutes. The supernatant was centrifuged at 30,000 g at 4° C. for 10 minutes. The pellet was rehomogenised in 50 mM Tris-HCl, pH 7.6 (1:40 w/v) and centrifuged at 30,000 g at 4° C. for 10 minutes. The final pellet was resuspended in 50 mM Tris-HCl, pH 7.6 (equivalent to 12.5 mg wet weight of tissue/ml) and used immediately in the binding assay. Aliquots (400 μl; equivalent to 5 mg wet weight of tissue/tube) of this suspension were added to tubes containing the ligand (50 μl; 0.1 nM) and distilled water (50 μl; total binding) or phentolamine (50 μl; 5 μM; non-specific binding) or test compound (50 μl; at a single concentration of 10^-6 M or at 10 concentrations ranging from 10^-11 -10^-3 M). The ligand was 7-methoxy-[^3 H]prazosin and the mixture was incubated at 30° C. for 30 minutes before the incubation was terminated by rapid filtration. The filters were washed with ice-cold Tris-HCl buffer and dried. The filters were punched out into vials, scintillation fluid added and radioactivity determined by liquid scintillation counting. The percentage displacement of specific binding of the tritiated ligand was calculated for the single concentration (10^-6 M) of test compound. […] The concentration which gave 50% inhibition of specific binding (IC50) was obtained from the curve. The inhibition coefficient Ki was then calculated using the formula [formula] in which [ligand] is the concentration of the tritiated ligand used and KD is the equilibrium dissociation constant for the ligand.

D2 dopamine receptors = D2 dopamine receptors (Rattus norvegicus, UniProt P61169); test: inhibition of tritiated (S)-sulpiride binding to D2 dopamine receptors in vitro; parameters: species or system rat (male Charles River CD, striatal tissue); details: rat striatum, tritiated (S)-sulpiride 1 nM, 4° C., 40 min
D2 dopamine receptors, sequence (P61169 whole entry): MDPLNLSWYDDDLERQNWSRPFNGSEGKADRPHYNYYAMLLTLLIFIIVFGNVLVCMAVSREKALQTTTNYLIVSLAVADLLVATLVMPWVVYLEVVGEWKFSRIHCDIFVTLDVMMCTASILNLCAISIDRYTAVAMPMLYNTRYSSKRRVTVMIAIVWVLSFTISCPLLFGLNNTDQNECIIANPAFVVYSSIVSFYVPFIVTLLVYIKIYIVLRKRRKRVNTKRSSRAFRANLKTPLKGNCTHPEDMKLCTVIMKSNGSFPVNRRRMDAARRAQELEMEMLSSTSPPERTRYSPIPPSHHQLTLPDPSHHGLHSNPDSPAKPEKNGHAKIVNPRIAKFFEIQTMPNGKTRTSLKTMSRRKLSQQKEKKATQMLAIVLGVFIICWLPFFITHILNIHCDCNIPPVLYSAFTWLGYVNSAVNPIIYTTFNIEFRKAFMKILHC

[1] = 10^-6 M, rat hippocampus, [3H]8-OH-DPAT

Ki (5-HT1A receptors; rat hippocampus) [nM] | Ki (α2D-adrenoceptors) [nM] | Ki (α1-adrenoceptors) [nM] | Ki (D2 dopamine receptors) [nM] | % displacement at 10^-6 M, α1 (α1-adrenoceptors) [%] | inhibition at 1 µM (5-HT1A receptors; [1]) [%] | inhibition at 1 µM (α2D-adrenoceptors) [%] | Structure (SMILES) | inhibition at 1 µM (5-HT1A receptors) [%]
105 | 197 | 401 | 158 |  |  |  | C=CCn1c(-c2ccco2)nn(CN2CCN(c3ccccc3OC)CC2)c1=S [Example 56, 4-Allyl-5-(2-furyl)-2-[4-(2-methoxyphenyl)piperazin-1-ylmethyl]-1,2,4-triazole-3(2H,4H)-thione] | 
> 500 | > 500 |  | > 500 | 56 |  |  | C=CCn1c(-c2cccnc2)nn(CCN2CCN(c3ccccc3C)CC2)c1=O [Example 71, 4-Allyl-2-{2-[4-(2-methylphenyl)piperazin-1-yl]ethyl}-5-(3-pyridyl)-1,2,4-triazol-3(2H,4H)-one] | 
 |  | > 500 | 193 |  | 74 | 66 | C=CCn1c(-c2cccnc2)nn(CN2CCN(c3ccccc3OC)CC2)c1=O [Example 63, 4-Allyl-2-[4-(2-methoxyphenyl)piperazin-1-ylmethyl]-5-(3-pyridyl)-1,2,4-triazol-3(2H,4H)-one] | 
117 | 150 | > 500 | 274 |  |  |  | CCCn1c(-c2ccncc2)nn(CN2CCN(c3ccccc3OC)CC2)c1=S [Example 53, 2-[4-(2-Methoxyphenyl)piperazin-1-ylmethyl]-4-propyl-5-(4-pyridyl)-1,2,4-triazole-3(2H,4H)-thione] | 
> 500 | > 500 |  | > 500 | 91 |  |  | C=CCn1c(-c2cccnc2)nn(CCCN2CCN(c3ccccc3OC)CC2)c1=O.Cl.Cl.Cl [Example 72, 4-Allyl-2-{3-[4-(2-methoxyphenyl)piperazin-1-yl]propyl}-5-(3-pyridyl)-1,2,4-triazol-3(2H,4H)-one trihydrochloride] | 
135 | 218 | 477 | 243 |  |  |  | COc1ccccc1N1CCN(Cn2nc(C(F)(F)F)n(C)c2=S)CC1 [Example 54, 2-[4-(2-Methoxyphenyl)piperazin-1-ylmethyl]-4-methyl-5-(trifluoromethyl)-1,2,4-triazole-3(2H,4H)-thione] | 
 | > 500 |  | > 500 | 93 | 70 |  | C=CCn1c(-c2cccs2)nn(CCN2CCN(c3ccccc3OC)CC2)c1=O [Example 69, 4-Allyl-2-{2-[4-(2-methoxyphenyl)piperazin-1-yl]ethyl}-5-(2-thienyl)-1,2,4-triazol-3(2H,4H)-one] | 
> 500 |  | > 500 | > 500 |  |  | 95 | C=CCn1c(-c2cccnc2)nn(CN2CCN(c3ncccn3)CC2)c1=S [Example 57, 4-Allyl-5-(3-pyridyl)-2-[4-(pyrimidin-2-yl)piperazin-1-ylmethyl]-1,2,4-triazole-3(2H,4H)-thione] | 
 | > 500 |  | 310 | 64 | 69 |  | C=CCn1c(C)nn(CCN2CCN(c3ccccc3OC)CC2)c1=O [Example 70, 4-Allyl-2-{2-[4-(2-methoxyphenyl)piperazin-1-yl]ethyl}-5-methyl-1,2,4-triazol-3(2H,4H)-one] | 
 |  |  | 201 | 59 | 77 | 68 | C=CCn1c(-c2ccc(Cl)cc2)nn(CN2CCN(c3ccccc3OC)CC2)c1=S [Example 62, 4-Allyl-5-(4-chlorophenyl)-2-[4-(2-methoxyphenyl)piperazin-1-ylmethyl]-1,2,4-triazole-3(2H,4H)-thione] | 
 | > 500 |  | > 500 | 56 | 63 |  | C=CCn1c(-c2cccnc2)nn(CCN2CCN(c3cccc(C)c3C)CC2)c1=O [Example 65, 4-Allyl-2-{2-[4-(2,3-dimethylphenyl)piperazin-1-yl]ethyl}-5-(3-pyridyl)-1,2,4-triazol-3(2H,4H)-one 2.8 hydrochloride] | 
119 | 255 | 497 | 306 |  |  |  | C=CCn1c(C)nn(CN2CCN(c3ccccc3OC)CC2)c1=S [Example 59, 4-Allyl-2-[4-(2-methoxyphenyl)piperazin-1-ylmethyl]-5-methyl-1,2,4-triazole-3(2H,4H)-thione] | 

Further lines, the compound ahead of its results:

Structure (SMILES) | Ki (5-HT1A receptors; rat hippocampus) [nM] | Ki (α2D-adrenoceptors) [nM] | Ki (α1-adrenoceptors) [nM] | Ki (D2 dopamine receptors) [nM] | % displacement at 10^-6 M, α1 (α1-adrenoceptors) [%] | inhibition at 1 µM (5-HT1A receptors; [1]) [%] | inhibition at 1 µM (α2D-adrenoceptors) [%] | inhibition at 1 µM (5-HT1A receptors) [%]
C=CCn1c(-c2cccnc2)nn(CN2CCN(c3ccccc3OC)CC2)c1=S [Example 47, 4-Allyl-2-[4-(2-methoxyphenyl)piperazin-1-ylmethyl]-5-(3-pyridyl)-1,2,4-triazole-3(2H,4H)-thione] | 152 | 178 | > 500 | 262 |  |  |  | 
C=CCn1c(-c2ccccc2)nn(CN2CCN(c3ccccc3OC)CC2)c1=S [Example 52, 4-Allyl-2-[4-(2-methoxyphenyl)piperazin-1-ylmethyl]-5-phenyl-1,2,4-triazole-3(2H,4H)-thione] | 150 | 148 | > 500 | 222 |  |  |  | 
COc1ccccc1N1CCN(Cn2nc(-c3ccncc3)n(C)c2=S)CC1 [Example 51, 2-[4-(2-Methoxyphenyl)piperazin-1-ylmethyl]-4-methyl-5-(4-pyridyl)-1,2,4-triazole-3(2H,4H)-thione] |  | > 500 |  | 134 | 53 | 54 |  | 
C=CCn1c(-c2ccncc2)nn(CN2CCN(c3ccccc3OC)CC2)c1=S [Example 49, 4-Allyl-2-[4-(2-methoxyphenyl)piperazin-1-ylmethyl]-5-(4-pyridyl)-1,2,4-triazole-3(2H,4H)-thione] | 123 | 146 | > 500 | 121 |  |  |  | 
COc1ccccc1N1CCN(Cc2c(N)n(C)n(-c3ccccc3)c2=O)CC1 [Example 1, 3-amino-4-[4-(2-methoxyphenyl)piperazin-1-ylmethyl]-2-methyl-1-phenyl-3-pyrazolin-5-one] | 169 | 130 | 23 | 192 |  |  |  | 
Nc1c(CN2CCN(c3cccc(C(F)(F)F)c3)CC2)c(C2CC2)nn1-c1ccccc1 [Example 15, 5-Amino-3-cyclopropyl-1-phenyl-4-{4-[3-(trifluoromethyl)phenyl]piperazin-1-ylmethyl}pyrazole] |  | > 500 | > 500 | 337 |  | 67 |  | 
COCCCn1c(-c2ccncc2)nn(CN2CCN(c3ccccc3OC)CC2)c1=S [Example 50, 2-[4-(2-Methoxyphenyl)piperazin-1-ylmethyl]-4-(3-methoxypropyl)-5-(4-pyridyl)-1,2,4-triazole-3(2H,4H)-thione] | 170 | 194 | > 500 | 192 |  |  |  | 
C=CCn1c(-c2cccnc2)nn(CCN2CCN(c3ccccc3OC)CC2)c1=O.Cl.Cl [Example 67, 4-Allyl-2-{2-[4-(2-methoxyphenyl)piperazin-1-yl]ethyl}-5-(3-pyridyl)-1,2,4-triazol-3(2H,4H)-one dihydrochloride] |  | > 500 |  | > 500 | 78 |  |  | 52
